Test results reported in ChEMBL document CHEMBL1201862, “PubChem BioAssay data set” (2004).
Calls of active or inactive are those of the source.

What was measured:
[1] = growth suppression of PTEN-null colon cells, dose response, cell-based, HCT116 PTEN knockout (AID 1047); assay type: functional;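 note: HCT116 colon tumor cells with PTEN knocked out; cells exposed to compound for 60 hours before readout; potency for loss of cell viability measured by luminescence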
[2] = growth suppression of beta-catenin-knockout colon cells, dose response, cell-based, HCT116, human colon tumor (AID 1045); assay type: functional;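 note: HCT116 colon tumor cells with beta catenin knocked out; cells exposed to compound for 60 hours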
[3] = inhibitors of HIV Env-driven cell fusion, dose response, cherry-pick (AID 652057); assay type: functional, cell-based
[4] = off-target signal loss in HeLa-CEM21 co-culture – HeLa F-luc CTL cells, cherry-picked, counter-screen for HIV-1 Env fusion inhibitor project, dose response (AID 652040); assay type: functional, cell-based;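 note: potency for signal decrease marking cytotoxic or nonspecific inhibition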
[5] = ZM109 Env clade C HIV-1 fusion inhibitors, dose response, HeLa effector, CEM target cells, luciferase, cherry-pick (AID 652058); assay type: functional, cell-based
[6] = inhibitors of clade B AD8 Env fusion, dose response, cell-based, cherry-pick (AID 652062); assay type: functional;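 note: luciferase signal from cell-cell fusion driven by HIV-1 clade B AD8 Env; potency is for inhibitors of fusion seen as a drop in luminescence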
[7] = molecular target: T1, Heat shock factor protein 1 (Mus musculus, UniProt P38532); experiment: inhibition of MG132-induced HSE-luciferase signal, confirmation, cell-based, NIH3T3, luminescence, dose retest (AID 2382); assay type: functional;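 note: NIH3T3 fibroblasts with HSF1-driven luciferase reporter stressed by proteasome inhibitor MG132; luminescence from HSF1-driven luciferase expression after 8 hours of MG132 stress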
T1 sequence (P38532 whole entry): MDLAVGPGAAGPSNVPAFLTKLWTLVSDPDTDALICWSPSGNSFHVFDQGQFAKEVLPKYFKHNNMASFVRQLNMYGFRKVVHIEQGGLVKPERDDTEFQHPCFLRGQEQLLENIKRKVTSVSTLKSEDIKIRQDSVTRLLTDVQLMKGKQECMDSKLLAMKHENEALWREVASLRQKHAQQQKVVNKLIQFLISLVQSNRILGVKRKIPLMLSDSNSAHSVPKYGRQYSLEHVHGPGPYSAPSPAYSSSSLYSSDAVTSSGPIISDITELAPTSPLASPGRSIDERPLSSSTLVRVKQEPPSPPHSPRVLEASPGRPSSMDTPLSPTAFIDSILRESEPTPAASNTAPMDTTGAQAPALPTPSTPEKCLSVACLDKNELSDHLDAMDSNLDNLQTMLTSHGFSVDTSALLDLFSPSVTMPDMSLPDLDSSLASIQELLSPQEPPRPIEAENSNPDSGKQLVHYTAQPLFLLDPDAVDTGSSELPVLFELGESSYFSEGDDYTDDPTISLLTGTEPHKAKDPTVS

[8] = control 3'UTR Renilla luciferase suppression, dose response, counter-screen for Shn3 inhibitor project, cell-based, Clone20-Shn3RL, cherry-picked (AID 624133); assay type: functional
[9] = HepG2 cell cytotoxicity, dose response, cytotoxicity control for Shn3 inhibitor project, CellTiter-Glo, cherry-picked (AID 624134); assay type: functional, cell-based
[10] = Shn3 3'UTR reporter inhibitors, dose response, cell-based, Clone20 osteoblasts, firefly luciferase, cherry-picked (AID 624132); assay type: functional;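 note: firefly luciferase luminescence from reporter carrying the Shn3 3'UTR in osteoblasts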
Cytochrome P450 2C9 = Cytochrome P450 2C9 (Homo sapiens, UniProt P11712)
Sequence of Cytochrome P450 2C9 (P11712 whole entry): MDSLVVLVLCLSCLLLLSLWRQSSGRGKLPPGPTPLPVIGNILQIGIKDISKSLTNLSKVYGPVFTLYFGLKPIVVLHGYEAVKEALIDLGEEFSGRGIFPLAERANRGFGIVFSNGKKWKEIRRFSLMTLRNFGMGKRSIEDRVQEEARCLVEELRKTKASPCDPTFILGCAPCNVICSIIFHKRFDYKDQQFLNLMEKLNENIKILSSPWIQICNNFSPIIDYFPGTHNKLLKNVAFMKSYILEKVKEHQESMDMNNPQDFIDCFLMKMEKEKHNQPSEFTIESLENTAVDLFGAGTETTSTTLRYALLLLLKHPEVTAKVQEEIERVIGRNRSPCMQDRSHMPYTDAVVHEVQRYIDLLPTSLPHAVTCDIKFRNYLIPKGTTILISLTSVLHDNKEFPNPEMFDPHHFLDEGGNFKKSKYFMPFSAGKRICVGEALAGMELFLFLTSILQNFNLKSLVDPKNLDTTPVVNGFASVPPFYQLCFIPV

Protein skinhead-1 = molecular target: T2, Protein skinhead-1 (Caenorhabditis elegans, UniProt P34707); assay type: functional
T2 sequence (P34707 whole entry): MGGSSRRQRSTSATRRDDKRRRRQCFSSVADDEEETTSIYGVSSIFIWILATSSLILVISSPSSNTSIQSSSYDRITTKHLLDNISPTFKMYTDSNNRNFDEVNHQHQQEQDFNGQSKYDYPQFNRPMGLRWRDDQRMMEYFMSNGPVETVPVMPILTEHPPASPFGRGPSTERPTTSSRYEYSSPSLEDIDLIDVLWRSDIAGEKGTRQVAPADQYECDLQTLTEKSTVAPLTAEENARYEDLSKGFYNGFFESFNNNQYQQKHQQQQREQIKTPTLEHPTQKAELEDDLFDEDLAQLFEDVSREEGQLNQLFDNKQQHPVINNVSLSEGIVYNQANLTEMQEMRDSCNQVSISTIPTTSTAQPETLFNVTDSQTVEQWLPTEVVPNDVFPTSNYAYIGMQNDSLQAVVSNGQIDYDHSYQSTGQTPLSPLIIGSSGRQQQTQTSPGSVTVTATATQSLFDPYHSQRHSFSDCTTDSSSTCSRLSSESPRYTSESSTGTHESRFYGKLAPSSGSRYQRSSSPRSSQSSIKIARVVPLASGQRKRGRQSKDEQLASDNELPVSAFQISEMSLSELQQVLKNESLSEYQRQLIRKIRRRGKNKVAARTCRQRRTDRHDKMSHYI

[11] = test system: Streptococcus sp. 'group A'; experiment: growth inhibition of control SK(-) GAS strain, dose response, counter-screen for streptokinase expression inhibitor project, luminescence, kanamycin, BacTiterGlo, confirmation (AID 1900); assay type: functional, organism-based
Streptokinase A = molecular target: T3, Streptokinase A (Streptococcus pyogenes serotype M1, UniProt P10520); experiment: S. pyogenes streptokinase expression inhibitors, potency, dose response, plasminogen activation absorbance, OD405 (AID 1914); assay type: functional, Streptococcus pyogenes M1 GAS;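 note: secreted streptokinase activity via plasminogen activation per viability signal from cell pellet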
T3 sequence (P10520 whole entry): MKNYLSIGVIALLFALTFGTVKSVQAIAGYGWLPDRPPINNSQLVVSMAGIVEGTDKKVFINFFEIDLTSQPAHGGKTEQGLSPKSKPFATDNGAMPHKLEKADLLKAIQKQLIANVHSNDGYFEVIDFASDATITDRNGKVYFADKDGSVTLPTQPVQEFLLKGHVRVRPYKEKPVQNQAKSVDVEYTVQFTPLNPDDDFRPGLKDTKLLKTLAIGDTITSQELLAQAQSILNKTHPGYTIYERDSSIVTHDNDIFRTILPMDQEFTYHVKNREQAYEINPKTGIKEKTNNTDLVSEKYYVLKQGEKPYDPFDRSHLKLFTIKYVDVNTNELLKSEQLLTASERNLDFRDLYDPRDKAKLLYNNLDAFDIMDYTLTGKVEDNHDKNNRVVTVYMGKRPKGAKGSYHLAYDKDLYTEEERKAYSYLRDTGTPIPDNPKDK

Streptococcus = experiment: Group A Streptococcus viability loss, dose response, counter-screen for streptokinase expression inhibitor project, luminescence, BacTiterGlo (AID 1915); assay type: functional, organism-based;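 note: potency for reduction of bacterial viability or growth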
[12] = molecular target: T4, Carboxy-terminal domain RNA polymerase II polypeptide A small phosphatase 1 (Homo sapiens, UniProt Q9GZU7); experiment: inhibitors of CTDSP1, concentration-response testing, biochemical assay, absorbance-based, actives from ultra-high-throughput screening (AID 540297); assay type: functional
T4 sequence (Q9GZU7 whole entry): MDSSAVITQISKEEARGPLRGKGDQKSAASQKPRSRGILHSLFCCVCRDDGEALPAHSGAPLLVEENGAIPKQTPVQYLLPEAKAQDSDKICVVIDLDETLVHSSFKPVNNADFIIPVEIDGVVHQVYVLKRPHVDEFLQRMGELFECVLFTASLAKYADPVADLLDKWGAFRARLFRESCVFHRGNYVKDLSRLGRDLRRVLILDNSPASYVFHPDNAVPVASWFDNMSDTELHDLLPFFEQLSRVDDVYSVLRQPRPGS

Genome polyprotein = Genome polyprotein (dengue virus type 2, UniProt P29990); experiment: Dengue-2 NS5 methyltransferase inhibitors, primary screen, biochemical, confirmation dose response (AID 588689); assay type: functional
Sequence of Genome polyprotein (P29990 2492-3391 limits assumed): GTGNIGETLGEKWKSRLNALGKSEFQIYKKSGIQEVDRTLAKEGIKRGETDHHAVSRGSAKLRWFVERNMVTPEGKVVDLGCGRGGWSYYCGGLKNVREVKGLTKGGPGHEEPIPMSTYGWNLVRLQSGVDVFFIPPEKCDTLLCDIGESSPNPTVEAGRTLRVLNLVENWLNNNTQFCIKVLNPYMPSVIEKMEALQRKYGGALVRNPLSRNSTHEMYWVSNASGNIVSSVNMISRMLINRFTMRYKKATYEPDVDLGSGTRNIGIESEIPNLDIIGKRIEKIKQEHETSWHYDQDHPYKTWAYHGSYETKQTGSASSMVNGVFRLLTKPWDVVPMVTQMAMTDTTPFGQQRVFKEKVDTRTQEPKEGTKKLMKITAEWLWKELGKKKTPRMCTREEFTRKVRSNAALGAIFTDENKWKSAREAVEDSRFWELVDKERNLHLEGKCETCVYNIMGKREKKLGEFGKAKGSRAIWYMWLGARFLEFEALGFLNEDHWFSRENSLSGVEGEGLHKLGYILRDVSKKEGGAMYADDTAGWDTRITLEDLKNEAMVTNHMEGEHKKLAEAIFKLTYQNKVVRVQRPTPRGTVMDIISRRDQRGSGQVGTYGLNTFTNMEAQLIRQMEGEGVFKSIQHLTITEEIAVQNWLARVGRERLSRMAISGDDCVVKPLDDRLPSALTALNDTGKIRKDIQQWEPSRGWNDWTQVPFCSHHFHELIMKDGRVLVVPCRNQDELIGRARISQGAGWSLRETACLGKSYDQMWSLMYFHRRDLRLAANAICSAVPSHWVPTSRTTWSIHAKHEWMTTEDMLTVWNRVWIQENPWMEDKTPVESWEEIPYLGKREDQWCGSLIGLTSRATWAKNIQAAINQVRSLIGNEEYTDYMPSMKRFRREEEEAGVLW

[13] = molecular target: T5, Rac GTPase-activating protein 1 (Homo sapiens, UniProt Q9H0H5); experiment: MgcRacGAP GTPase-activating activity inhibitors, confirmation, biochemical, ADP Hunter fluorescence, primary and confirmatory (AID 624330); assay type: functional
T5 sequence (Q9H0H5 whole entry): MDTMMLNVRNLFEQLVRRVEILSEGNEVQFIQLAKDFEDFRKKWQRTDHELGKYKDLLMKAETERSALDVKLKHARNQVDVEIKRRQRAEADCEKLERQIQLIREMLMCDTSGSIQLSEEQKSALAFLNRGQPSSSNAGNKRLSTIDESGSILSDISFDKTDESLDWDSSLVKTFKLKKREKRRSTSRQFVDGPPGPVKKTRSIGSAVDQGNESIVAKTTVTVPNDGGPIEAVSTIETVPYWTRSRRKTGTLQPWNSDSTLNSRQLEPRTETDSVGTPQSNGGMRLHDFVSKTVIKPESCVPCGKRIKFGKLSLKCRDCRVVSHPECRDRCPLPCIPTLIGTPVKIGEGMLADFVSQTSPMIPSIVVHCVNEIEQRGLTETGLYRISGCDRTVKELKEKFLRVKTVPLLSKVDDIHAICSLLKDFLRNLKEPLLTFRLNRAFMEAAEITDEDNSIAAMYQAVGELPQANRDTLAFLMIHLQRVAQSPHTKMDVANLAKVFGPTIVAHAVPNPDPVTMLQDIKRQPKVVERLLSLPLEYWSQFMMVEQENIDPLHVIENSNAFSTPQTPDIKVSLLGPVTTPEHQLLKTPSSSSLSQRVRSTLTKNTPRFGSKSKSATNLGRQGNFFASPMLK

COc1ccc(/C=C(\C#N)c2nc3cc(C)ccc3[nH]2)cc1Oc1ccc(C(F)(F)F)cc1[N+](=O)[O-]
EC50 [1]: 4.59 µM (active) | EC50 [2]: 8.78 µM (active)

O=C(Cn1nnc(-c2ccccc2Cl)n1)N/N=C/c1ccc(-c2cccc(Cl)c2)o1
EC50 [1]: 20.1 µM (active) | EC50 [2]: 39.1 µM (active)

COc1ccc(Cl)cc1NC(=O)CN(C)C(=O)CCCc1c[nH]c2ccccc12
AC50 [3]: 3.29 µM (active) | AC50 [4]: 4.68 µM (active) | AC50 [5]: 5.13 µM (active) | AC50 [6]: 4.6 µM (active)

CCOc1ccc2nc(NC(=O)c3cc([N+](=O)[O-])ccc3N3CCOCC3)sc2c1
EC50 [1]: 23.3 µM (active) | EC50 [7]: 15 µM (active) | EC50 [2]: 48.5 µM (active)

CCOC(=O)[C@@H]1[C@H]2COc3ccc(Br)cc3[C@@H]2N2C(=O)N(c3cccc(F)c3)C(=O)[C@@]12C
AC50 [3]: 2.7 µM (active) | AC50 [4]: 2.45 µM (active) | AC50 [5]: 4.41 µM (active) | AC50 [6]: 4.21 µM (active)

C=C1C(=O)OC2C=C(CO)C3OC3C3OC3(C)CC(OC(=O)/C(=C/C)COC(C)=O)C12 (stereo not drawn)
AC50 [8]: 9.84 µM (active) | AC50 [9]: 32.2 µM (active) | AC50 [10]: 5.89 µM (active)

COC(=O)c1ccc(CCc2cc(O)ccc2O)cc1
AC50 [8]: 14.5 µM (active) | AC50 [9]: > 70 µM (inactive) | AC50 [10]: 3.14 µM (active) | AC50 (Cytochrome P450 2C9): 7.94 µM (inconclusive)

COc1ccc(-n2c(C)cc(C(=O)CSc3nnc(-c4cccs4)o3)c2C)cc1
AC50 [8]: 5.62 µM (active) | AC50 [9]: 48.6 µM (active) | AC50 [10]: 5.03 µM (active)

CCOc1ccccc1C(=O)Nc1ccc(-n2nncc2C(C)(C)C)cc1
IC50 (Protein skinhead-1): > 100 µM (inactive)

O=C(Oc1ccc(/N=C2\C(=O)c3ccccc3C(O)=C2Cl)cc1)c1ccc([N+](=O)[O-])cc1
EC50 [11]: 20.7 µM (active) | EC50 [1]: 9.05 µM (active) | EC50 [2]: 4.97 µM (active) | EC50 (Streptokinase A): > 150 µM (not active) | EC50 (Streptococcus): 44.1 µM (active)

COC(=O)[C@]1(C)N[C@H](CN(C)C(=O)Nc2ccc(Cl)cc2)[C@@H]2C(=O)N(Cc3ccccc3)C(=O)[C@@H]21
AC50 [3]: 0.659 µM (active) | AC50 [4]: 1.5 µM (active) | AC50 [5]: 1.12 µM (active) | AC50 [6]: 1.3 µM (active)

COc1cc(/C=C2\C(=N)N3N=C(S(C)(=O)=O)SC3=NC2=O)ccc1OC(=O)c1ccco1
IC50 [12]: 4.55 µM (active)

COc1ccccc1N(C)S(=O)(=O)c1ccc(Cl)c(C(=O)NCC2(N(C)C)CCCCC2)c1
AC50 [3]: 2.92 µM (active) | AC50 [4]: 5.54 µM (active) | AC50 [5]: 3.96 µM (active) | AC50 [6]: 3.32 µM (active)

Cc1cc(=O)c2c(o1)C(=O)c1occc1C2=O
IC50 (Genome polyprotein): 62.4 µM (active)

CC1(C)CC(=O)C(=Cc2cn(CCC#N)nc2-c2ccc(Cl)cc2)C(=O)C1
IC50 (Genome polyprotein): 31.8 µM (active)

COc1ccc(-c2csc3ncnc(Oc4ccc5c(C)cc(=O)oc5c4)c23)cc1
EC50 [1]: 24.8 µM (active) | EC50 [2]: 47.3 µM (active)

CCC(C)(C)c1nnc(NC(=O)CCC2CCCCC2)s1
IC50 (Protein skinhead-1): > 100 µM (inactive)

Cc1onc(-c2ccccc2)c1C(=O)Nc1nc2c(s1)C(=O)CC(C)(C)C2
IC50 (Protein skinhead-1): > 100 µM (inactive)

CC(=O)/N=C1\SC2CS(=O)(=O)CC2N1c1cccc(Cl)c1Cl (stereo not drawn)
IC50 (Protein skinhead-1): > 100 µM (inactive)

O=C(O)c1cc(S(=O)(=O)N2CCN(S(=O)(=O)c3ccc4ccccc4c3)CC2)ccc1Br
IC50 [12]: 6.22 µM (active)

O=C(NC(=S)Nc1ccc(CN2CCCCC2)cc1)c1cc2ccccc2o1
IC50 (Protein skinhead-1): 32.2 µM (active)

CC[C@@]1(C(=O)OC)N[C@H](CN(C)C(=O)Nc2ccc(OC)cc2)[C@@H]2C(=O)N(Cc3ccccc3)C(=O)[C@@H]21
AC50 [3]: 1.1 µM (active) | AC50 [4]: 1.46 µM (active) | AC50 [5]: 1.71 µM (active) | AC50 [6]: 1.32 µM (active)

O=C1CCCCCN1Sc1ccccc1
EC50 [1]: 20.2 µM (active) | EC50 [2]: 16.9 µM (active) | IC50 [13]: 87.6 µM (active)

CCN(CC)CCC(c1cc(OC)c(OC)c(OC)c1)c1c(OC)cc(OC)c2c(C)cc(=O)oc12 (stereo not drawn)
IC50 (Protein skinhead-1): > 100 µM (inactive)

Cc1c(Br)c(O)c(Br)c2sc(=O)oc12
IC50 (Genome polyprotein): 62.3 µM (active)
